Laboratory results taken from patent US20100285509A1, “Melanoma-Associated Endogenous Retrovirus (MERV) Derived Peptide Sequences And Their Therapeutic/Diagnostic Use” (priority 2005, published 2010).
Where no end group is shown, it is not given here.

Legend:
Assay type in all cases: binding, human
melanoma sera pool [1] = assay: Epitope screening ELISA of biotinylated peptides with melanoma sera pool; settings: FIG. 2
Procedure: FIG. 2: Selected candidate peptides by Epitope prediction were tested with a melanoma sera pool and a reference sera pool respectively. The mouse derived control peptides K1 (Biotin-SGSG-KPLAQ-NH2) and K2 (Biotin-SGSG-GLAQ-NH2) were used as negative and positive control peptides. ELISA readout of patient sera pool (black bars) given as absorbance determined at 405 nm. All given A405 nm values refer to the measured A405 nm value of each sample minus the blank.
Serum specimens were collected from melanoma patients (diagnosis confirmed by histopathology) at the Department of Dermatology, Medical University of Vienna, Austria. Staging of patients and according classification of sera followed the 2001 US Joint Committee on Cancer guidelines (Balch 2001). Usage of patient sera was approved by the ethical committee of the Medical University of Vienna, confidentially of the study subjects has been protected by respective sample coding. Sera from healthy donors served as negative controls. All sera were stored at −20° C. immediately after blood withdrawal. Melanoma patient derived sera pools and respective reference sera pools from healthy subjects were used for epitope screening and further peptide testing.
Streptavidin-coated 96-well microtiter plates (Mimotopes Pty Ltd., Australia) were blocked with 200 μl/well of 2% bovine albumine (Sigma-Aldrich) in PBST (PBS [0.1 M sodium phosphate, 0.15 M NaCl, pH 7.0]+0.1% v/v Tween20 (PBST)) over night at 4° C. The wells were then washed four times with PBST and incubated with 100 μl/well of 1:500 diluted biotinylated peptides for 2 hours at room temperature. 2 wells per plate were incubated with PBST in the absence of peptide (blank wells). Plates were washed 4 times with PBST. Subsequently, 100 μl of a melanoma-sera pool, diluted 1:40 in 1% bovine albumine/PBST and a reference serum pool (1:40) were added to each well and incubated for 2 h at room temperature. The plate was washed 4 times with PBST and incubated with 100 μl/well of the secondary antibody: goat anti-human IgG (h+l) antibody alkaline-phosphatase conjugated (BETHYL Laboratories, Inc., USA). Detection antibody was diluted 1:1000 in blocking solution and incubated for 1 hour. After 6 washing steps with PBST, 200 μl of a 1.0 mg/ml p-Nitrophenylphosphat substrate solution in 0.2 M Tris-buffer (Sigma-Aldrich) was added to each well. Absorbance was measured on a BDSL Immunoskan PLUS at 405 nm.
During initial screening of various peptides reactive peptides to the melanoma patient derived sera pool were selected and also validated by determining the reactivity to the reference sera pool obtained from healthy volunteers. […] These peptides were tested to determine the experimental antigenicity.

melanoma sera pool [2] = assay: Peptide testing ELISA, unbiotinylated peptides coated on Nunc Maxisorp F plates; settings: for absorbance (A405 nm): melanoma sera pool dilution 1:50
Procedure: FIG. 5: Reactivity of serum antibodies with 2 MERV specfic partial overlapping peptides (GHB-G1 and GHB-H1) and 1 autoimmune-related peptide (GHB-17′) tested with 3 different melanoma-sera and reference sera pool dilutions respectively. An HIV peptide was used as negative control peptide. All given A405 nm values refer to the measured A405 nm value of each sample minus the blank.
NUNC Maxisorp F plates were coated with 1.0 μg peptide/well in 100 μl coating buffer (0.1 M sodium carbonate buffer, pH 9.5). 1 well per plate was coated with 100 μl of coating buffer without antigen (blank well). Plates were incubated over night at 4° C. Then plates were washed four times with PEST. Unspecific binding sites were blocked with 200 μl/well of 2% bovine albumine (Sigma-Aldrich) in PBST (PBS+0.1% v/v Tween20 (PBST)) for 1 hour at room temperature. The plates were washed 4 times with PBST. For the assay 100 μl/well of three different sera pool-dilutions (1:50, 1:200, 1:1600) diluted in 1% bovine albumine/PBST were added and incubated for 2 h at room temperature. Plates were washed 4 times with PBST and incubated with 100 μl/well of the secondary antibody: goat anti-human IgG (h+l) antibody alkaline-phosphatase conjugated, obtained from BETHYL Laboratories, Inc., USA (detection antibody was diluted 1:1000 in blocking solution) for 1 hour. After additional 6 times washing step with PBST, color was developed with 200 μl/well of a 1.0 mg/ml p-Nitrophenylphosphat substrate solution in 0.2 M Tris-buffer (Sigma-Aldrich). Absorbance was measured on a BDSL Immunoskan PLUS at 405 nm.
The peptides were tested with the same sera pools as given for the experiments above. As negative control peptide an HIV-derived peptide ([…]) with 1 μg/well was used.
Herve et al. characterise retroviral peptides in the context of autoimmune diseases. […] All three peptides were tested with three melanoma sera pool dilutions ([…], 1:200 and 1:1600). Peptides were coated on Nunc Maxisorp F plates and used to capture serum antibodies, which were then detected using goat anti-human IgG antibodies as shown in FIG. 5. […] GHB-G1 gave a signal of 1.50 even at a melanoma: sera pool dilution 1:200.

melanoma sera pool [3] = assay: Epitope mapping ELISA of 25 overlapping env-peptides (FIG. 4); settings: A405 nm melanoma sera pool minus reference sera pool
Description: FIG. 4: Epitope mapping of 25 overlapping env-peptides tested with a patient sera pool and a reference sera pool as described above. The first bar represents amino acid 204-220, the second bar represents amino acid 205-221, etc. Del A405 nm refers to the measured A405 nm values of the melanoma sera pool minus the A405 nm values of the reference sera pool of each peptide. One experiment of two performed is shown. Mean values from duplicate trials are shown.
Streptavidin-coated 96-well microtiter plates (Mimotopes Pty Ltd., Australia) were blocked with 200 μl/well of 2% bovine albumine (Sigma-Aldrich) in PBST (PBS [0.1 M sodium phosphate, 0.15 M NaCl, pH 7.0]+0.1% v/v Tween20 (PBST)) over night at 4° C. The wells were then washed four times with PBST and incubated with 100 μl/well of 1:500 diluted biotinylated peptides for 2 hours at room temperature. 2 wells per plate were incubated with PBST in the absence of peptide (blank wells). Plates were washed 4 times with PBST. Subsequently, 100 μl of a melanoma-sera pool, diluted 1:40 in 1% bovine albumine/PBST and a reference serum pool (1:40) were added to each well and incubated for 2 h at room temperature. […] Absorbance was measured on a BDSL Immunoskan PLUS at 405 nm. […]

[4] = test system: serum samples from melanoma patients; assay: Optimised ELISA on individual serum samples from melanoma patients; settings: 31 melanoma serum samples; positive = value of 0.39 or above
Procedure: NUNC Polysorp F Peptide Immobiliser plates were coated with 0.125 μg peptide/well in 100 μl coating buffer ((0.1 M sodium carbonate buffer, pH 9.5). Plates were incubated over night at 4° C. Plates were then washed four times with PBST and unspecific binding sites were blocked with 200 μl/well of 2% bovine albumine (Sigma-Aldrich) in PBST (PBS+0.1% v/v Tween20 (PBST)) for 1 hour at room temperature. The plates were washed 4 times with PBST. For the assay 100 μl/well of serial-dilutions of the sera (initial dilution 1:200 in 1% bovine albumine/PBST were added and incubated for 2 h at room temperature. Plates were washed 4 times with PEST and incubated with the secondary antibody (100 μl/well). As secondary antibody an alkaline-phosphatase conjugated goat anti-human IgG (h+1) (BETHYL Laboratories, Inc., USA) diluted 1:1000 in blocking solution was used. Incubation period was 1 hour. After another 6 washing steps with PBST, the substrate was added (1.0 mg/ml p-Nitrophenylphosphat Sigma-Aldrich) in 0.2 M Tris-buffer 200 μl/well) Absorbance was measured on a BDSL Immunoskan PLUS at 405 nm.
For analysis of serum samples from melanoma patients, Nunc Polysorp Immobilizer Amino plates were used. […] 16 serum samples from healthy individuals served as controls to establish a negative treshold, as calculated by the average absorbance plus three standard deviations. […]

Sequence | reactivity ranking among the 46 tested peptides (melanoma sera pool [1]) | absorbance (A405 nm) (melanoma sera pool [2]; FIG. 5) | other results
EMQRKAPPRRRRHRNRA (also: biotinylated (site not given here)) [Peptide A1, Env aa 5-21] | most reactive | – | –
FRPKGKPCPKEIPKESK (also: biotinylated (site not given here)) [Peptide H1, Env aa 220-236] | most reactive | above 0.50 | –
PAELQYRPPPESQYGYP (also: biotinylated (site not given here)) [Peptide E3, Gag aa 219-235] | most reactive | – | –
PWGWGEKGISTPRPKIV (also: biotinylated (site not given here)) [Peptide E2, Env aa 312-328] | most reactive | – | –
SYQRSLKFRPKGKPCPKEIP (Melanoma Associated Endogenous Retrovirus) [SEQ ID NO 69, unbiotinylated 20-mer covering peptides 10-13, env aa 213-232] | – | – | reactivity compared to unbiotinylated 17-mer peptide G1 (melanoma sera pool [2]; unbiotinylated peptides, independent experiment): did not exhibit a significant improvement
YQRSLKFRPKGKPCPKE (Melanoma Associated Endogenous Retrovirus) [Peptide G1, Env aa 214-230] | most reactive | ~1.50 | reactivity (Del A405 nm) (melanoma sera pool [3]): lower absorbance in the assay than the three neighbour peptides; absorbance signal (A405 nm) (melanoma sera pool [2]; melanoma sera pool dilution 1:200, FIG. 5): 1.50; melanoma sera that did not recognise the epitope [4]: 16; melanoma serum samples reacting positive [4]: 15 out of the 31
